Experimental data reported in article PMC10673995, “Discovery of a novel cardiac-specific myosin modulator using artificial intelligence-based virtual screening” (Nature Communications, 2023).
Several values for one entry are separate records, joined by “and”; a condition that tells them apart may be missing. Equal entries are not always repeated.

What was measured:
[1] = tested on: cyclic GMP-AMP synthase; parameters: method as in PubChem; settings: ref PubChem; cited from earlier work
[2] = tested on: demembranated rat ventricular trabeculae; experiment: Mechanics of demembranated ventricular trabeculae (force, pCa50, ktr); parameters: Isometric force, individual trabeculae / force re-development, Representative Traces: unit not given here; settings: for Normalized force, Force-pCa Titration / force re-development, Representative Traces: 20 μM F10; for Normalized Force (Tension): pCa 5.9
Procedure: Wistar rats (Rattus norvegicus, male, 200–250 g, 7 weeks old) were killed by cervical dislocation without the use of anesthetics (Schedule 1 procedure in accordance with UK Animal Scientific Procedure Act, 1986) and demembranated right ventricular trabeculae were prepared as described previously.
BSR-cRLCs were exchanged into demembranated trabeculae by extraction in CDTA-rigor solution (composition in mmol L^−1: 5 CDTA, 50 KCl, 40 Tris-HCl pH 8.4, 0.1% (v/v) Triton X-100) for 30 min followed by reconstitution with 40 μmol L^−1 BSR-cRLC in relaxing solution (composition in mmol L^−1: 25 Imidazole, 15 Na2Creatine phosphate (Na2CrP), 78.4 KPropionate (KPr), 5.65 Na2ATP, 6.8 MgCl2, 10 K2EGTA, 1 DTT, pH 7.1) for 1 h, replacing ~50% of the endogenous cRLC[40],[64].
The sarcomere length of trabeculae was adjusted to 2.1 μm by laser diffraction in relaxing solution prior to each activation. […] Each activation was preceded by a 2-min incubation in pre-activating solution (composition in mmol L^−1: 25 Imidazole, 15 Na2CrP, 108.2 KPr, 5.65 Na2ATP, 6.3 MgCl2, 0.2 K2EGTA, 1 DTT, pH 7.1). Solutions with varying concentrations of free [Ca^2+] were prepared by mixing relaxing and activating solutions using MAXCHELATOR software (maxchelator.stanford.edu). Isometric force and steady-state fluorescence polarization values were measured once steady force had been established. The dependence of force and order parameters on free calcium concentration was fitted to data from individual trabeculae using non-linear least-squares regression to the modified Hill Eq. (1):1 F=Y0+A⋅([Ca^2+]^nH)/(−log10[pCa50]^nH+[Ca^2+]^nH) where pCa50 is the negative logarithm of [Ca^2+] corresponding to half-maximal change in F, nH is the Hill coefficient, Y0 is the baseline, and A is the amplitude (for normalized force data: Y0 = 0 and A = 1).

For `CCc1cc2c(=O)n(NC(=S)NC(C)C)cnc2s1` [F10], which “biological activity in primary screen” value [1] is on record?
The value was “without, however, any biological activity”.

What about the “Normalized force, Force-pCa Titration” value ([2]; pCa 4.5) of the same compound?
Its value is 1.00.

And the “Normalized force, Force-pCa Titration” value ([2]; pCa 5.5)?
Its value is 0.88 and 0.85 and 0.81.

And the “Normalized force, Force-pCa Titration” value ([2]; pCa 5.6)?
Its value is 0.73 and 0.76 and 0.72.

And the “Normalized force, Force-pCa Titration” value ([2]; pCa 5.7)?
The value was 0.48 and 0.55 and 0.53.

What about the “Normalized force, Force-pCa Titration” value ([2]; pCa 5.8) of the same compound?
The value was 0.13 and 0.14 and 0.18.

What about the “force re-development, Representative Traces” value ([2]; t 0.0001 s) of the same compound?
Its value is 0.9946.

And the “force re-development, Representative Traces” value ([2]; t 0.0002 s)?
Its value is 0.9927.

What about the “force re-development, Representative Traces” value ([2]; t 0.0003 s) of the same compound?
Its value is 0.9927.

And the “force re-development, Representative Traces” value ([2]; t 0.0004 s)?
Its value is 0.9927.

And the IC50 ([2]; Rattus norvegicus, pCa 5.9, about 50% maximal activation, read-out: IC50 active isometric force)?
The IC50 was 9 µM.

What about the “pCa50 of force development” value ([2]; in the presence of F10 (20 μM), control 5.88 ± 0.02) of the same compound?
The value was 5.69 ± 0.01 and 5.68 and 5.693 and 5.684.

What about the Tmin ([2]; individual replicates) of the same compound?
Its Tmin is 2.9 and 4.1 and 1.3 and 4.3 and 4.9.

And the ktr ([2]; individual replicates)?
The ktr was 35.4 and 37.1 and 32.7.

And the nH ([2]; individual replicates)?
The nH was 5.8 and 6.0 and 4.9.

And the pCa50 ([2]; individual replicates)?
The pCa50 was 5.68 (2×) and 5.69.

What about the “Isometric force, individual trabeculae” value ([2]; pCa 4.5, 20 μmol L^−1 F10) of the same compound?
Its value is 16.0321 and 19.6135 and 8.993 and 17.2526 and 16.2235.

And the “decrease of maximal active isometric tension” value ([2]; pCa 4.5, 20 μmol L^−1 F10)?
The value was “more than 75%”.

And the “Normalized Force (Tension)” value ([2]; F10 5 micromolar)?
The value was 80.6034 % control.

And the “Normalized Force (Tension)” value ([2]; F10 10 micromolar)?
The value was 50.8621 % control.

What about the “Normalized Force (Tension)” value ([2]; F10 20 micromolar) of the same compound?
The value was 27.5862 % control.

And the “Normalized Force (Tension)” value ([2]; F10 40 micromolar)?
Its value is 17.2414 % control.

And the “Isometric force, individual trabeculae” value ([2]; pCa 9, 20 μmol L^−1 F10)?
The value was 2.857 and 4.07 and 1.256 and 4.268 and 4.903.

What about the “effect on passive tension” value ([2]; pCa 9, 20 μmol L^−1 F10) of the same compound?
The value was “no effect”.

And the “Tmin (passive tension)” value ([2]; pCa 9, 20 μmol L^−1 F10, control 3.4 ± 0.5)?
The value was 3.5 ± 0.6 mN mm-2.

What about the “rate of force re-development ktr, individual trabeculae (Bar Graph)” value ([2]; slack-re-stretch protocol, F10, in s-1 (unit assumed)) of the same compound?
The value was 35.4 and 37.11 and 32.67.

And the “rate of force re-development ktr” value ([2]; slack-re-stretch protocol, in the presence of F10, control 12.0 ± 1.9)?
The value was 35.1 ± 1.3 s⁻¹ and 35 ± 1 s⁻¹.
